Source: paper PMC9589286, “Ruthenium polypyridine complexes with triphenylamine groups as antibacterial agents against Staphylococcus aureus with membrane-disruptive mechanism” (Frontiers in Chemistry, 2022)
Converted amounts (≈) assume the structure as drawn. Blank lines part the entries; values can stand above or below the compound they belong to.

Columns and labels:
[1] = tested on: Staphylococcus aureus; test: MIC by microdilution in TSB broth; assay type: cell-based; conditions: 20 h
Experimental: Antibacterial activity was evaluated by measuring MIC (minimum inhibitory concentration) and MBC (minimum bactericidal concentration) values. The MIC value was measured by the microdilution method using TSB broth with 96 well plates ([Carlsen et al., 1981]) and the MBC value was determined by LB plates. In brief, the overnight cultured bacteria were 1: 1000 diluted with fresh medium to get a bacterial suspension. After incubation at 37°C for 20 h, the growth of bacteria is monitored by observing the turbidity of the culture. The bacterial solution was diluted as above method and the complexes were incubated with bacterial solution for 2 h. Then 100 μL bacterial solution was taken for plate coating. The Staphylococcus aureus growth inhibition trend in the presence of complexes was obtained. The MBC values of complexes were determined by LB plates after culturing in the same method for 24 h. All experiments were controlled with sterile water and repeated in parallel at least three times.

[2] = tested on: rabbit red blood cells; test: Hemolytic activity on rabbit red blood cells; assay type: cell-based; conditions: 37°C, 30 min
Experimental: Obtain red blood cells from fresh sterile rabbit blood and rabbit blood was washed three times with PBS. Ru(II) complexes in 950 µL phosphoric acid buffer (PBS) of different concentrations and 50 μL red blood cells were added into a 1.5 ml sample tube, incubated at 37°C for 30 min. The negative control was red blood cell suspension containing only PBS, and the positive control was PBS containing 0.1% (V/V) Triton X-100. After incubating the mixture was centrifugated (2000 rpm for 2 min) and the supernatant (200 μL) was transfered to another 96 well plate. Finally, the hemolysis rate was calculated by measuring the absorbance at 540 nm.

[3] = Partition coefficient, shake flask 1-octanol/PBS; assay type: physicochemical
Experimental: The partition coefficients of all complexes were determined by standard shake flask method in 1-octanol and buffer liquid system ([Yang et al., 2021]). In brief, the octanol/water partition coefficient is obtained by the incubation of 2 ml of 25 μg ml^−1 ruthenium complex 1-octanol and 2 ml PBS samples. After shaking the solution for 6 h, the samples were stood for 2 h. The absorbance of octanol complex at 282 nm before and after oscillation was measured. The absorbance of 1-octanol before oscillation minus the absorbance of 1-octanol after oscillation is the absorbance of the complex in water. Each experiment was repeated three times. The partition coefficient is reported as the number of octanol divided by the number of water.

[4] = tested on: Staphylococcus aureus; test: Nucleic acid leakage, 260 nm absorbing material; assay type: cell-based; conditions: 100 μg/ml, 2 h
Experimental: To verify the membrane damage, the loss of 260 nm absorbing material was carried out ([Yu et al., 2021]). Briefly, overnight cultured bacteria were diluted 1:1000 in fresh TSB and shaken at 37°C for about 5 h until the exponential stage was reached. The supernatant was removed by centrifugation, then the bacteria were resuspended to OD600 = 1 with PBS, which was further treated with Ru-3 or polymyxin B and centrifuged after 2 h to precipitate bacterial cells. Subsequently, the loss of 260 nm absorbing material, including the release of DNA and RNA in the filtrate, was measured at 260 nm.

[5] = tested on: Staphylococcus aureus; test: Checkerboard assay with antibiotics; assay type: cell-based; conditions: for MIC of antibiotics: antibiotic alone, S. aureus; for FICI: combination of the antibiotic with Ru-3, S. aureus
Experimental: Firstly, the MIC of all selected antibiotics was determined by the above method. Staphylococcus aureus was cultured overnight and diluted 1000 times with fresh TSB. Then 200 μL the diluted bacterial suspension, 25 μL Ru-3 of gradient concentrations and 25 μL antibiotics of gradient concentrations were mixed in 96 well plates and further cultured at 37°C for 20 h. MIC values of single drug and the best combination effect (combination of MICA and MICB) were measured. Graphpad prism software was used to draw the checkerboard map and isoline map.

[6] = tested on: Staphylococcus aureus; test: Drug resistance study, 20 generations at sub inhibitory concentration; assay type: cell-based; conditions: 20 passages at sublethal concentration
Experimental: After Staphylococcus aureus was cultured for 5 h, the bacteria were diluted 1000 times with fresh TSB and the MIC of Ru-3 was measured. The bacterial solution grown at the sub inhibitory concentration of compound Ru-3 was inoculated into fresh TSB medium for 5 h, then the MIC was measured, and the above procedure was repeated for 20 generations. Ampicillin was used as the control.

[7] = tested on: Galleria mellonella; test: Toxicity in insect model Galleria mellonella; assay type: in vivo; conditions: larvae, 120 h
Experimental: Based on the excellent antibacterial effect of Ru-3 in vitro, its biosafety was further evaluated. Firstly, the hemolytic activity of ruthenium complexes on rabbit red blood cells was measured to study their toxicity. […] In view of its good compatibility with mammalian red blood cells, the toxicity of Ru-3 to eukaryotes was also studied. Herein, Ru-3 was tested with Gallery melonella larvae. […] When the concentration of Ru-3 was 64 mg kg^−1, the survival rate was still 75%.
FIGURE 15 Test results of Ru compounds toxicity (A) % hemolysis at 256 μg ml^−1 of Ru compounds. (B) Kaplan-Meier survival curves. […] The larvae were incubated at 37.5°C and live/dead scores were conducted at 120 h (C) H&E staining images of the infected tissues with different treatments.

Compound: [Ru(dmob)2PMA] (PF6)2 [Ru-1]
MIC ([1]; S. aureus, 37°C): 16 µg/mL | % Hemolysis at 256 μg/ml [2]: 8% | LgP [3]: 1.14 | logD o/w [3]: ca. 1.1445

Compound: Polymyxin B [reference compound]
Δ% Nucleic acid leakage [4]: 23%

Compound: Cc1ccc(N(c2ccc(C)cc2)c2ccc(-c3nc4c5cccnc5c5ncccc5c4[nH]3)cc2)cc1 [PMA]
MIC ([1]; S. aureus, 37°C): >256 µg/mL

Compound: CN(C)[C@@H]1C(O)=C(C(N)=O)C(=O)[C@@]2(O)C(O)=C3C(=O)c4c(O)cccc4[C@@](C)(O)[C@H]3C[C@@H]12 [Tetracycline]
MIC of antibiotics [5]: 0.39 µg/mL | FICI [5]: 0.50

Compound: [Ru(bpy)2PMA] (PF6)2 [Ru-2]
MIC ([1]; S. aureus, 37°C): 8 µg/mL | % Hemolysis at 256 μg/ml [2]: 16% | LgP [3]: 0.97 | logD o/w [3]: ca. 0.9681

Compound: CN[C@H](CC(C)C)C(=O)N[C@H]1C(=O)N[C@@H](CC(N)=O)C(=O)N[C@H]2C(=O)N[C@H]3C(=O)N[C@H](C(=O)N[C@H](C(=O)O)c4cc(O)cc(O)c4-c4cc3ccc4O)[C@H](O)c3ccc(c(Cl)c3)Oc3cc2cc(c3O[C@@H]2O[C@H](CO)[C@@H](O)[C@H](O)[C@H]2O[C@H]2C[C@](C)(N)[C@H](O)[C@H](C)O2)Oc2ccc(cc2Cl)[C@H]1O [Vancomycin]
MIC ([1]; Staphylococcus aureus): 2 µg/mL (≈ 1.38 µM) | MIC of antibiotics [5]: 2 µg/mL | FICI [5]: 1.00

MIC of antibiotics [5]: 6.25 µg/mL
Compound: O=C(N[C@H](CO)[C@H](O)c1ccc([N+](=O)[O-])cc1)C(Cl)Cl [Chloramphenicol]
FICI [5]: 0.50

MIC of antibiotics [5]: 50.00 µg/mL
Compound: NC[C@H]1O[C@H](O[C@H]2[C@H](O)[C@@H](O[C@H]3O[C@H](CO)[C@@H](O)[C@H](N)[C@H]3O)[C@H](N)C[C@@H]2N)[C@H](O)[C@@H](O)[C@@H]1O [Kanamycin]
FICI [5]: 0.38

MIC of antibiotics [5]: 6.25 µg/mL
Compound: CNC(C)C1CCC(N)C(OC2C(N)CC(N)C(OC3OCC(C)(O)C(NC)C3O)C2O)O1 (centres unmarked) [Gentamicin]
FICI [5]: 0.38

MIC ([1]; S. aureus, 37°C): >256 µg/mL
Compound: O.O.O.[Cl][Ru]([Cl])[Cl] [RuCl3∙3H2O]

Compound: CC1(C)S[C@@H]2[C@H](NC(=O)[C@H](N)c3ccccc3)C(=O)N2[C@H]1C(=O)O [Ampicillin, reference compound]
increase of MIC value after 20 generations [6]: more than 1024 times | MIC of antibiotics [5]: 0.39 µg/mL | FICI [5]: 0.38 | Kaplan-Meier survival curve [7]: coincides with control’s curve
